Tests used:
[1] = system: U87MG glioma cells expressing LacZ; assay: In vivo combination therapy with temozolomide, orthotopic brain tumor model; settings: survival measured up to 90 days
Description: On the 6th days after transplantation of U87MG glioma cells expressing LacZ, the F cells prepared in Preparation Example 2 were suspended in a Plasma Solution A, followed by centrifugation at 500×g for 5 minutes. The supernatant was discarded, and the washing procedure was repeated twice. Then, the cell suspension was prepared to have a concentration of 3×10^5/6 μl. The cell suspension was transplanted at a rate of 0.3 μl/min at the brain coordinates of AP=+0.5 mm, ML=−1.8 mm, and DV=−3 mm. From the next day after the cell transplantation, 5-FC (15 mg/ml physiological saline) was intraperitoneally injected at a dose of 500 mg/kg for one week. […] On 28th day, brain tissues were obtained from 8 animals in each animal group and X-gal staining was performed in the same manner as in Example 2 to measure the size of brain tumor.

[2] = system: U87/GFP; assay: In vitro combination therapy of F cells + 5-FC with irinotecan (isobologram); type: cell-based; settings: 144 h; U87/GFP co-cultured with F cells (MSC/CD), 6 days; read-out: IC50 values obtained by treatment alone
Description: 10,000 U87/GFP and 10,000 F cells (MSC/CD) were cultured in a 12-well plate. From the next day, the cells were treated with Irinotecan (Sigma) at a concentration of 0 to 30 μM and the prodrug 5-FC at a concentration of 0 to 300 μM, and cultured for 6 days while replacing with a new medium containing the drug once every two days. On the 7th day, the culture solution was removed, 200 μl of 1× passive lysis buffer was then added to each well, and each well was allowed to stand at 4° C. for 10 minutes. The cell lysate was collected and centrifuged at 12,000 rpm for 5 minutes to obtain supernatant. 100 μl of the supernatant was transferred to a black 96-well plate in which light is blocked, and the intensity of fluorescence was measured under conditions of excitation 488 nm and emission 530 nm using a fluorimeter (GEMINI EM).

Structure (SMILES)	median survival [1] [days]	IC50 [2] [µM]
Cn1nnc2c(C(N)=O)ncn2c1=O [temozolomide]	42	–
CCc1c2c(nc3ccc(OC(=O)N4CCC(N5CCCCC5)CC4)cc13)-c1cc3c(c(=O)n1C2)COC(=O)[C@]3(O)CC [irinotecan]	–	3.2
Nc1nc(=O)[nH]cc1F [5-FC, 5-fluorocytosine]	–	73.6
